Laboratory results taken from patent US12023378B2, “Covalently linked antigen-antibody conjugates” (Hoffmann-La Roche Inc., priority 2012, dated 2024).

Experiments:
[1] = Dig-peptide serum kinetic: Western blot detection of digoxigenylated polypeptide in serum; format: in vivo, mouse
Protocol: (§1) Serum samples were stored at −80° C.
The determination of the amount of digoxigenylated peptide in the serum at the given time points was difficult compared to the detection of Dig-Cy5 as no direct means to detect the polypeptide in serum samples was available. Therefore, a Western-Blot related assay to detect digoxigenylated peptide in serum was established. In a first step, the serum samples were separated on reducing SDS-PAGE. Because sample preparation included exposure of the serum to high concentrations of SDS and reducing agents, complexed Dig-polypeptide conjugates can become released from the (completely denatured/unfolded) anti-digoxigenin antibody, whereas covalently conjugates remained bound. To mediate the release of the polypeptide from the non-covalent antibody complex and separate the individual components by SDS-PAGE, 2 μl of each serum sample was diluted in 18 μl 20 mM histidine/140 mM NaCl pH 6.0, mixed with 6.7 μl of 4×LDS sample buffer and 3 μl of 10× sample reducing agent (NuPAGE, Invitrogen) for 5 min at 95° C. As a control, 2 μl of serum of an untreated mouse of the same strain was used. […] Digoxigenylated polypeptides were subsequently detected on the membrane with an anti-digoxigenin antibody. […] Chemiluminescence was detected with the Lumilmager F1 (Roche) with an exposure time of 20 min.

[2] = mouse, in vivo
Excerpt: The control group was not pre-injected with the anti-biotin antibody.

[3] = mouse, in vivo; remark: listed apart in the source
Protocol: The objective of the described peptide modification technology is to improve the therapeutic applicability of peptides. Major bottlenecks for therapeutic application of peptides are currently limited stability in vivo and/or short serum half-life and fast clearance. The PK parameters of antibody conjugates of fluorophores were determined in vivo and compare with the PK of non-covalent antibody-fluorophore complexes. Therefore, (i) the anti-biotin antibody VH53C was covalently conjugated to the biotinylated fluorophore Biot-Cys-Cy5, (ii) a non-covalent complex of the anti-biotin antibody with biotinylated fluorophore Biot-Cy5 was generated, (iii) the covalently conjugated and the non-covalently complexed compounds were applied to animals and (iv) the serum concentrations of the compounds over time in these animals was measured by determination of the fluorescence of Cy5 (A650), and that of the corresponding antibody by an ELISA method that specifically detects the humanized antibody.
as §1

CC[C@H](C)[C@H](NC(C)=O)C(=O)N[C@@H](CCCCNC(=O)CCOCCOCCOCCNC(=O)CO[C@H]1CC[C@@]2(C)[C@H](CC[C@@H]3[C@@H]2C[C@@H](O)[C@]2(C)[C@@H](C4=CC(=O)OC4)CC[C@]32O)C1)C(=O)N1CCN(c2ccc3ncn(CC(=O)N[C@@H](CCCNC(=N)N)C(=O)N[C@@H](Cc4c[nH]cn4)C(=O)N[C@@H](Cc4ccc(O)cc4)C(=O)N[C@@H](CC(C)C)C(=O)N[C@@H](CC(N)=O)C(=O)N[C@@H](Cc4c[nH]c5ccccc45)C(=O)N[C@H](C(=O)N[C@H](C(=O)N[C@@H](CCCNC(=N)N)C(=O)N[C@@H](CCC(N)=O)C(=O)N(C)[C@@H](CCCNC(=N)N)C(=O)N[C@@H](Cc4ccc(O)cc4)C(N)=O)[C@@H](C)O)C(C)C)c(=O)c3c2)CC1 [non-complexed polypeptide]
presence of digoxigenylated polypeptide in serum (Western blot signal) ([1]; 32.1 nmol, 0.08 h to 24 h after administration, FIG. 35): barely any signal associable to the small polypeptide was detectable even at the earliest time point | half-life / persistence in the serum of mice ([1]; Western blot, up to 24 hrs.): very short half-life

Biotin-O2Oc-Ser-O2Oc-DADOO-Cy5 [Biotin-Ser-Cy5]
serum half-life and exposure levels [2]: low serum half-life and low exposure levels | relative Cy5-mediated fluorescence in serum [3]: not detectable
